{"source": "patent US20220162610A1", "about": "“NOVEL RNA TRANSCRIPT” (PTC Therapeutics, Inc., priority 2020, published 2022)", "key": {"HTT protein": {"test_system": "HTT protein", "experiment": "HTT protein electrochemiluminescence (ECL) assay in HD patient fibroblasts, 96 h", "assay_type": "cell-based, human", "conditions": "for HTT protein level: fibroblasts derived from HD patients, 96 h", "protocol": "Human fibroblasts derived from a homozygous patient with HD (GM4857) were cultured for 96 hours in the presence of test compounds (in 0.5% DMSO) or controls at 37° C. in a humidified 5% CO2 atmosphere. After 96 hours, cells were lysed and frozen. HTT protein levels were measured in lysates as described below. Compounds that decreased HTT protein levels relative to DMSO control were further tested in a dose response assay.\nFor analysis in the electrochemiluminescence (ECL) assays, test compounds were serially diluted 3-fold in 100% DMSO (Sigma) to generate a 7-point concentration curve. A solution of test compound (500 nL, 200× in DMSO) was added to each test well with Acoustic Transfer System (EDC Biosystems); final concentration of DMSO was 0.5%. Fibroblasts were seeded in 96-well flat-bottomed plates (Thermo Fisher) at 4×10^3 cells/well in 100 μl of culture medium containing the test compound or DMSO vehicle control and incubated for 96 hours (37° C., 5% CO2, 100% relative humidity). After removal of the supernatant, cells were lysed in 50 μL of 1×LB11 extraction buffer (50 mM Tris (pH 7.4), 300 mM NaCl, 10% [w/v] glycerol, 3 mM EDTA, 1 mM MgCl2, 20 mM glycerophosphate, 25 mM NaF, 1% Triton X-100), containing a Complete™ protease inhibitor cocktail (Roche Diagnostics) with shaking at 4° C. for 30 minutes; the plates were then stored at −20° C.\nMeso Scale Discovery® 96-well plates (MSD®) were coated overnight at 4° C. with primary antibodies in phosphate-buffered saline (PBS; 30 μl/well). The plates were washed three times with 0.05% Tween-20 in 1×PBS (PBS-T; 200 μl/well) then blocked (100 μl/well; 5% bovine serum albumin [BSA] in PBS-T) for 5-6 hours at room temperature (RT) with shaking. Plates were then washed three times with PBS-T. Cell lysates were transferred to the antibody coated plates (25 μl/well) and incubated with shaking overnight at 4° C. After removal of the lysates, the plates were washed three times with PBS-T, and 25 μl of detection antibody in 1% BSA, PBS-T was added to each well and incubated with shaking for 1 hour at room temperature. After three washes with PBS-T, 25 μl of Sulfo-Tag secondary antibody (MSD®; 0.25 μg/ml in 1% BSA, PBS-T) was added to each well and incubated with shaking for 1 hour at RT. After washing three times with PBS-T, 150 μl of read buffer T with surfactant (MSD®) was added to each empty well and the plate was imaged on the SI 6000 imager (MSD®) according to manufacturers' instructions for 96-well plates. Primary capture antibodies included: anti-polyglutamine-expanded HTT mouse monoclonal antibody (mAb) clone MW1 (1 μg/mL; Developmental Studies Hybridoma Bank); anti-HTT MAB2166 mAb (1 μg/mL; Millipore); anti-human KRAS rabbit polyclonal antibody (1 μg/mL; Thermo Fisher Scientific). Detection antibodies included: Huntingtin (D7F7) XP® Rabbit mAb (0.25 μg/ml; Cell Signalling Technology®); anti-hKRAS mouse mAb (0.25 μg/ml; LSBIO)."}, "human HTT protein": {"test_system": "human HTT protein", "experiment": "Pharmacodynamic study in BACHD mice, HTT protein in tissues", "assay_type": "in vivo", "protocol": "Test mice were euthanised and brain, muscle (quadriceps), and blood samples were harvested 2 hours after the last dose on Day 20. Prior to analysis, crude total protein from brain and muscle tissue samples was prepared by sample lysis in MSD® assay buffer 1 (MSD®) with Complete™ Protease Inhibitor Cocktail added (Roche Diagnostics). Tissues were then homogenised using TissueLyser II (Qiagen) plus a 5 mm stainless steel bead. The lysate was clarified by centrifugation at 16,000×g for 20 minutes at 4° C. and the total protein concentration quantified with the Pierce™ BCA Protein Assay Kit (Thermo Scientific) according to the manufacturer's instructions. Whole blood was collected by cardiac puncture into EDTA collection tubes. An aliquot (100-200 μL) was added to 1.5 mL of eBioscience™ 1× Red Blood Cell Lysis Buffer (Thermo Fisher) and mixed well for 5 minutes before collecting the white blood cells (WBC) by centrifugation at 400×g. The supernatant was discarded, and the pellet of WBCs was frozen in liquid nitrogen and stored at −70° C. Brain and muscle sample lysates were analysed for hHTT and KRAS protein expression using the ECL protein assay (described previously); using the same method WBC samples were also analysed for hHTT expression but not KRAS.\nEach tissue sample was tested in duplicate using the ECL protein assay and the average hHTT and KRAS readouts were calculated. The ratio of the mean hHTT signal to the mean KRAS signal (×1000) was determined for each test animal. The hHTT/KRAS ratio grand mean for the vehicle group of five test animals was calculated and the fold change relative to the vehicle grand mean was determined for each test animal in each group. Percent hHTT (% hHTT) lowering normalised to KRAS was determined for each test animal by subtracting the fold change from one and multiplying the difference by 100. Each experiment was performed twice yielding ten % hHTT lowering values for each treatment group. For each treatment group, the mean % hHTT lowering plus the standard error of the mean (SEM) was plotted as a bar graph. The % hHTT lowering in white blood cell samples was determined without KRAS using the grand hHTT vehicle mean instead of the grand hHTT/KRAS ratio vehicle mean.\nBACHD: Pharmacodynamic (PD) evaluations were performed in BACHD mice aged 6-10 weeks. Compound or vehicle (HPMC/0.1% Tween 80) was administered to BACHD mice (5 female mice per group) once daily for 21 doses (QD×21) by oral gavage; dosing volumes were 10 mL/kg. Each animal was regularly observed for mortality or signs of pain, distress, or overt toxicity and findings were recorded. Body weights were recorded at the start and at least once a week during the course of the study. As described previously, tissue samples were obtained and prepared for ECL protein assay analysis from each animal as described previously."}}}
{"smiles": "CCN1CCC(c2cc(C)c3nc(-c4ccc5nn(C)cc5c4)cc(=O)n3c2)CC1", "note": "[HTT-D1]", "values": [{"measurement": "HTT protein level", "setting": "HTT protein", "result": "dose-dependent decrease"}]}
{"smiles": "CC1(C)CC(Oc2ccc(-c3ccc(-c4cn[nH]c4)cc3O)nn2)CC(C)(C)N1", "note": "[HTT-C2]", "values": [{"measurement": "time for protein expression to return to control levels after treatment cessation", "setting": "human HTT protein; 10 mg/kg, brain", "result": "≤ 10", "unit": "days"}, {"measurement": "time at which maximal reductions in HTT levels were achieved", "setting": "human HTT protein; 10 mg/kg, brain, time course 4-63 days", "result": "≤ 21", "unit": "days"}, {"measurement": "lowering of HTT protein throughout the whole brain", "setting": "human HTT protein; 10 mg/kg, incl. striatum and cortex", "result": "> 50", "unit": "%"}, {"measurement": "HTT reduction in blood cells, muscle, heart, liver and kidney", "setting": "human HTT protein; at doses required to achieve 50% HTT lowering in the brain", "result": "> 90", "unit": "%"}, {"measurement": "HTT levels within brain tissue", "setting": "human HTT protein; daily oral administration, 3 or 10 mg/kg", "result": "dose-dependent reduction of HTT levels within brain tissue"}, {"measurement": "HTT protein within peripheral tissues", "setting": "human HTT protein; oral administration", "result": "dose dependently lowered HTT protein within peripheral tissues"}]}
{"smiles": "CC1(C)CC(Oc2ccc(-c3ccc(-c4ccnc(O)c4)cc3O)nn2)CC(C)(C)N1", "note": "[HTT-C1]", "values": [{"measurement": "HTT protein level", "setting": "HTT protein", "result": "dose-dependent decrease"}, {"measurement": "wild type and mutant HTT protein expression", "setting": "HTT protein; fibroblasts, 96-hour treatment", "result": "lowered HTT protein expression from both alleles"}]}
{"smiles": "CCN1CCC(c2cc3c(F)cc(-c4cc(C)c5nc(C)cn5n4)cc3nn2)CC1", "note": "[HTT-D3]", "values": [{"measurement": "HTT protein within the brain and peripheral tissues", "setting": "human HTT protein; BACHD mice", "result": "dose dependent and more equitable lowering of HTT protein"}]}
